Earlier results as cited in paper PMC2948132 (The Open Cardiovascular Medicine Journal, 2010).

What was measured:
[1] = tested on: complement-mediated ischemia/reperfusion injury
[2] = tested on: classical or alternative C3 convertase; details: ref [19]-[22]
[3] = tested on: primate-derived complement; details: reference not given

TP20: soluble CR1 decorated with fucosylated tetrasaccharide sialyl Lewisx
efficacy in animal models of transplantation and IR injury, in words ([1]; ref [11],[14],[49],[50]): effective

Compstatin
C3 convertase inhibition, in words [2]: known to inhibit classical or alternative C3 convertase by preventing C3 cleavage
species specificity of complement inhibition, in words [3]: only inhibits primate-derived complement

sCR1: Soluble complement receptor1
protection against IRI, in words ([1]; ref [45],[46]): successful in offering protection against IRI
